Where “and” joins values, the source holds several entries; their conditions need not be identical. Identical values can stand only once.
Experiments:
[1] = target: ERK2 (Rattus norvegicus (Rat), UniProt P63086); assay: Selectivity dose-response kinase assay, ERK2; assay type: biochemical; conditions: 100 μM ATP
Excerpt: (§1) CHK1 and NUAK1 were purchased from SignalChem (Vancouver, BC). The NUAK2, CHK, and SAMS peptides were purchased from BioSyn (Lewisville, Tex.). The sequence of CHK and NUAK2 peptides are described elsewhere (Sanchez Y, et al. Science (New York, N.Y.). 1997; 277(5331):1497-1501; Scott J W, et al. Sci Rep. 2015; 5:14436). ERK2, AMPK, CAMKK2, and Ets1 were produced in house as previously described (Waas W F, Dalby K N. The Journal of biological chemistry. 2002; 277(15):12532-12540; Neumann D, et al. Protein Expr Purif. 2003; 30(2):230-237; Waas W F, Dalby K N. Protein Expr Purif. 2001; 23(1):191-197). Apparent KM values for ATP under specific assay conditions were determined using respective experimental conditions in Table 8 with varied ATP (0-1.28 mM). All selectivity dose-response assays were performed in kinase assay buffer (see Inhibitor Library Screen) with 2 mM DTT and 100 μM γ-^32P-ATP with additional conditions listed in Table 8. IC50 and KM^ATP values were subsequently used to calculate Ki (Equation 4). Relative selectivity was determined by comparing Ki^Enzyme/Ki^MELK (termed φ in Table 7). […] Standard error from linear regression data was propagated internally in Prism and taken into account in nonlinear regression to determine IC50 or Ki.

[2] = test system: SUM-159 cells; assay: Cell proliferation, CellTiter-Blue viability assay, SUM-159; assay type: cell-based, human; conditions: 72 h after treatment
Excerpt: (§2) HCC70, BT-549, and SUM159 human TNBC cell lines and MCF10A human breast epithelial cell line were purchased from American Type Culture Collection. The murine 4T1-Luc TNBC cells were purchased from PerkinElmer. HCC70, BT-549, and 4T1-Luc cells were maintained in RPMI 1640 medium (Life Technologies Inc., Grand Island, N.Y., USA) and MDA-MB-231-LM2 cells in Dulbecco's modified Eagle's medium/F12 medium (Life Technologies Inc., Grand Island, N.Y., USA), both types of medium supplemented with FBS (10%) and antibiotic/antimycotic (1%). SUM159 cells were maintained in Ham's F-12 medium (Life Technologies Inc., Grand Island, N.Y., USA) supplemented with FBS (5%), antibiotic/antimycotic (1%), insulin (5 μg/mL), and hydrocortisone (1 μg/mL). MCF10A cells were maintained in Dulbecco's modified Eagle's medium/F12 medium supplemented with horse serum (10%), antibiotic/antimycotic (1%), insulin (10 μg/mL), EGF (20 ng/mL), cholera toxin (100 ng/mL), and hydrocortisone (500 μg/mL). […]
(§3) Cell proliferation was determined using the CellTiter-Blue viability assay as described previously (Gloeckner H, et al. Journal of immunological methods. 2001; 252(1-2):131-138). […] At 72 h after MELK inhibitor treatment, optical density at 595 nm was determined.

[3] = target: NUAK1 (Homo sapiens (Human), UniProt O60285); assay: Selectivity dose-response kinase assay, NUAK1; assay type: biochemical; conditions: 100 μM ATP
NUAK1, sequence (O60285 whole entry): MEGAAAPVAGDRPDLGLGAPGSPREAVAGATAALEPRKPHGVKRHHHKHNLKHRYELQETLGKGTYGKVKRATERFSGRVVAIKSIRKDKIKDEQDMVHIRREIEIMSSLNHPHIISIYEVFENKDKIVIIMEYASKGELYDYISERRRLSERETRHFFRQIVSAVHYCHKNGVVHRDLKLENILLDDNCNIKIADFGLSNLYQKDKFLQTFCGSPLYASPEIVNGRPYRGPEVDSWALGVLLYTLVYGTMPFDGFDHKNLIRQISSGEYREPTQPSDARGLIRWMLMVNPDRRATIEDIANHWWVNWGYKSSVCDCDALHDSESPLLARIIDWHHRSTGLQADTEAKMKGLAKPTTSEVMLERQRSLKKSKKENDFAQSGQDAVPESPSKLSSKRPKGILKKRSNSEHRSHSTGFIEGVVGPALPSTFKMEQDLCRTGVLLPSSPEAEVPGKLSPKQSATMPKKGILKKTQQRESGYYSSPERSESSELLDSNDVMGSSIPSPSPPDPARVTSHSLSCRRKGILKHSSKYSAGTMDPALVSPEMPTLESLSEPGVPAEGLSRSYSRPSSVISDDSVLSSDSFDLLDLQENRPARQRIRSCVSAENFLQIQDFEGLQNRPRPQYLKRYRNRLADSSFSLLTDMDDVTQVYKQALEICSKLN
Excerpt: as §1

[4] = test system: MCF10A cells; assay: Cell proliferation, CellTiter-Blue viability assay, MCF10A; assay type: cell-based, human; conditions: 72 h after treatment
Excerpt: HCC70, BT-549, and SUM159 human TNBC cell lines and MCF10A human breast epithelial cell line were purchased from American Type Culture Collection. The murine 4T1-Luc TNBC cells were purchased from PerkinElmer. HCC70, BT-549, and 4T1-Luc cells were maintained in RPMI 1640 medium (Life Technologies Inc., Grand Island, N.Y., USA) and MDA-MB-231-LM2 cells in Dulbecco's modified Eagle's medium/F12 medium (Life Technologies Inc., Grand Island, N.Y., USA), both types of medium supplemented with FBS (10%) and antibiotic/antimycotic (1%). SUM159 cells were maintained in Ham's F-12 medium (Life Technologies Inc., Grand Island, N.Y., USA) supplemented with FBS (5%), antibiotic/antimycotic (1%), insulin (5 μg/mL), and hydrocortisone (1 μg/mL). MCF10A cells were maintained in Dulbecco's modified Eagle's medium/F12 medium supplemented with horse serum (10%), antibiotic/antimycotic (1%), insulin (10 μg/mL), EGF (20 ng/mL), cholera toxin (100 ng/mL), and hydrocortisone (500 μg/mL). All cell lines used in this study were validated by the Characterized Cell Line Core Facility at MD Anderson Cancer Center by using a short tandem repeat method based on primer extension to detect single base deviations.
Cell proliferation was determined using the CellTiter-Blue viability assay as described previously (Gloeckner H, et al. Journal of immunological methods. 2001; 252(1-2):131-138). Cells were seeded in 96-well plates and treated the next day with MELK inhibitors (0-20 μM). At 72 h after MELK inhibitor treatment, optical density at 595 nm was determined.

[5] = test system: BT-549 cells; assay: Cell proliferation, CellTiter-Blue viability assay, BT-549; assay type: cell-based, human; conditions: 72 h after treatment
Excerpt: as §2, §3

[6] = target: AMPK (Rattus norvegicus (Rat), UniProt P54645); assay: Selectivity dose-response kinase assay, AMPK; assay type: biochemical; conditions: 100 μM ATP
AMPK, sequence (P54645 whole entry, looked up): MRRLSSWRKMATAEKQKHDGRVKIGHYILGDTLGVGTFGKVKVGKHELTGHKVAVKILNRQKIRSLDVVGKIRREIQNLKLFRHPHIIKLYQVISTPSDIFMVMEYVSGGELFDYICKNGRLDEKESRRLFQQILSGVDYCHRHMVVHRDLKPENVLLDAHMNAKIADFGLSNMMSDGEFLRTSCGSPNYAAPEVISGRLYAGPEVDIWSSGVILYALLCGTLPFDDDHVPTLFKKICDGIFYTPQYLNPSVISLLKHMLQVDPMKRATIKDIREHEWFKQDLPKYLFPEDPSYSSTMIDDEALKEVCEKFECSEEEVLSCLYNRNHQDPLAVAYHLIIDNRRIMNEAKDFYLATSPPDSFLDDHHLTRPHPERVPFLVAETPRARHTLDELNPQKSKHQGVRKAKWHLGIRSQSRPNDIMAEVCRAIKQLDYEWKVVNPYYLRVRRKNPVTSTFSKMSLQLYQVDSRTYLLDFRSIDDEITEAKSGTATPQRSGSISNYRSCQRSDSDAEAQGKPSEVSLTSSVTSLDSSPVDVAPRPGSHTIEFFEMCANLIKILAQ
AMPK, sequence (P80386 whole entry partner, looked up): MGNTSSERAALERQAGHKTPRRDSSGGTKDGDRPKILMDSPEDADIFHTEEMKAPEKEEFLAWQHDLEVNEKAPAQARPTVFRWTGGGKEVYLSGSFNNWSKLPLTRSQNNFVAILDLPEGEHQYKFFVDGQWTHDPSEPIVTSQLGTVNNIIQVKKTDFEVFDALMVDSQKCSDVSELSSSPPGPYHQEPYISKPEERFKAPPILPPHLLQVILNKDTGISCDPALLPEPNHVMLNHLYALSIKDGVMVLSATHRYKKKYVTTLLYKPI
AMPK, sequence (P80385 whole entry partner, looked up): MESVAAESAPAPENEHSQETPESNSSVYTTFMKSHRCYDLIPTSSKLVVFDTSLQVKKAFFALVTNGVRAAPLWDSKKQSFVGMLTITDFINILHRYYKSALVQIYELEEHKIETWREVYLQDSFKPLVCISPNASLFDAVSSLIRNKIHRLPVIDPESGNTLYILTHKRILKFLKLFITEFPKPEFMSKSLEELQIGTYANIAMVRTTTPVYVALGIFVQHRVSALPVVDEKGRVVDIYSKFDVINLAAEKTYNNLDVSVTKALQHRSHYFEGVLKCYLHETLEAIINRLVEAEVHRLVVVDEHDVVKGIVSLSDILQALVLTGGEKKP
Excerpt: as §1

[7] = target: CHK1 (Homo sapiens (Human), UniProt O14757); assay: Selectivity dose-response kinase assay, CHK1; assay type: biochemical; conditions: 100 μM ATP
CHK1, sequence (O14757 whole entry): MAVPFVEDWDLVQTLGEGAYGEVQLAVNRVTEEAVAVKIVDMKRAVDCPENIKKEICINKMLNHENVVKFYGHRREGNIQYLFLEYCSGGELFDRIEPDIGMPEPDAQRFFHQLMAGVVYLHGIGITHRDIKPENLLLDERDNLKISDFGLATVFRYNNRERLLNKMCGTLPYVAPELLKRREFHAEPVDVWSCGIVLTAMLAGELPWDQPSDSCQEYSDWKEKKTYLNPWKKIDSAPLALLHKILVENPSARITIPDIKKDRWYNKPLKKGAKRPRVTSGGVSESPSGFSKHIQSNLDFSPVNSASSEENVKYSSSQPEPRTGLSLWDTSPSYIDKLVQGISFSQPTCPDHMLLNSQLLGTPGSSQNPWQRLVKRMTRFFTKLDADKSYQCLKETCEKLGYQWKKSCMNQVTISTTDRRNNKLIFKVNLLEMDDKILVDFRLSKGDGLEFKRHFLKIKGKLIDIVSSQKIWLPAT
Excerpt: as §1

[8] = target: CAMKK2 (Homo sapiens (Human), UniProt Q96RR4); assay: Selectivity dose-response kinase assay, CAMKK2; assay type: biochemical; conditions: 100 μM ATP
CAMKK2, sequence (Q96RR4 whole entry, species assumed): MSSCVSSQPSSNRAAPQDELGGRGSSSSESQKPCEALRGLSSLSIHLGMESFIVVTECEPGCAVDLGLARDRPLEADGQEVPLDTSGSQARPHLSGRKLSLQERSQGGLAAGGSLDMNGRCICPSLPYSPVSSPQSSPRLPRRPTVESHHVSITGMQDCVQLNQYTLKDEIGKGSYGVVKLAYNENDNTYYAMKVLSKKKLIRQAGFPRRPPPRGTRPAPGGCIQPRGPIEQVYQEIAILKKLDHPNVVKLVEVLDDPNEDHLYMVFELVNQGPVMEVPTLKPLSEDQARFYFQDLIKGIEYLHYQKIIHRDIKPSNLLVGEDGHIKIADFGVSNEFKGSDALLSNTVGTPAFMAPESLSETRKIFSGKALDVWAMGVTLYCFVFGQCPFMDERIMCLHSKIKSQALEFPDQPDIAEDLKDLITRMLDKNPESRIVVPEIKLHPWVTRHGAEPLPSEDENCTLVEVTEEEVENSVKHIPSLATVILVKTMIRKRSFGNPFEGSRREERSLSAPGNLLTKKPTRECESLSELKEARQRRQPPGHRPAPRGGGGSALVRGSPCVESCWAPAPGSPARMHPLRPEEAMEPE
Excerpt: as §1

[9] = test system: HCC70 cells; assay: Cell proliferation, CellTiter-Blue viability assay, HCC70; assay type: cell-based, human; conditions: 72 h after treatment
Excerpt: as §2, §3

[10] = target: MELK (Homo sapiens (Human), UniProt Q14680); assay: MELK p81-based kinase assay, dose-response (IC50/Ki); assay type: biochemical
MELK, sequence (Q14680 1-340): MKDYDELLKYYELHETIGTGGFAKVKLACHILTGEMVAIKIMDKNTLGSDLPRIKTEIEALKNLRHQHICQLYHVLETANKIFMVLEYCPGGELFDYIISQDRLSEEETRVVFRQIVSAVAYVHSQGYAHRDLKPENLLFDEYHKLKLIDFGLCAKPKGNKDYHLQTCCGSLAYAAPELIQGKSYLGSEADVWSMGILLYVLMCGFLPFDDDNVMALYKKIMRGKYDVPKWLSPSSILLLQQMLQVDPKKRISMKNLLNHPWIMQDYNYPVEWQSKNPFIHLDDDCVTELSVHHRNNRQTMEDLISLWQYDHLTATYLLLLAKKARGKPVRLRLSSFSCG
Procedure: MELK and its substrate, Bcl-G were both recombinantly expressed and purified for use in screening assays (See Methods). […] 10 nM MELK 340 and 10 μM Bcl-GL in kinase assay buffer (50 mM HEPES pH 7.5, 100 mM KCl, 0.1 mM EDTA, 0.1 mM EGTA, 10 mM MgCl2, 10 μg/mL BSA) with 10 mM DTT were added to either 10 μM or 1 μM inhibitor aliquoted into 96 well plates (final 1% DMSO). The mixture was incubated at room temperature for 30 minutes prior to initiation of the assay with 40 μM γ-^32P-ATP (100-1000 CPM/pmol). 40 μL aliquots were spotted onto a p81 96 well filter plate (Unifilter, Whatman), quenched, and washed with 75 mM O-phosphoric acid 8 times, followed by a final wash with acetone for drying. Wells were then filled with scintillation fluid, sealed, and quantified using a MicroBeta TriLux liquid scintillation counter (PerkinElmer). Each inhibitor plate was assayed in duplicate, with at least 4 wells without MELK to establish background and at least 4 wells without inhibitor as a negative control. All readings were corrected for background signal based on the average counts from the wells without enzyme. Percent inhibition, defined as [100−(CPM+inhibitor/average CPM of positive controls)*100], was determined first at 10 μM inhibitor. The top 50 inhibitors were then re-screened in duplicate at 1 μM.
At set time points (0.25, 0.5, 1, 1.5, and 2 min for assays containing 10 nM MELK and 1, 2, 4, 6, and 10 min for assays containing 1 nM MELK), 30 μL aliquots were taken from each reaction and spotted onto 2×2 cm squares of p81 paper. Papers were washed 4 times in 75 mM O-phosphoric acid and once in acetone. Labeled protein was quantified by its associated CPM determined on a Packard 1500 scintillation counter at a sigma value of 2. CPM were translated into nmol ^32P incorporated using Equation 1.
Rates in the presence of each concentration of inhibitor were determined by plotting nmol ^32P incorporated vs. time. These rates were normalized to rates obtained without inhibitor, and data were plotted in terms of fractional activity. In most cases, data were fit to Equation 2. If the IC50 approached the amount of enzyme used in the assay, data were re-fit to the equation for tight-binding inhibitors (the Morrison equation, […]). […] Data were transformed as discussed and fit to Equation 3.
IC50 values were used to estimate each inhibitor's Ki using the Cheng-Prusoff relationship for competitive inhibitors (Equation 4).

ERK2, sequence (P63086 whole entry): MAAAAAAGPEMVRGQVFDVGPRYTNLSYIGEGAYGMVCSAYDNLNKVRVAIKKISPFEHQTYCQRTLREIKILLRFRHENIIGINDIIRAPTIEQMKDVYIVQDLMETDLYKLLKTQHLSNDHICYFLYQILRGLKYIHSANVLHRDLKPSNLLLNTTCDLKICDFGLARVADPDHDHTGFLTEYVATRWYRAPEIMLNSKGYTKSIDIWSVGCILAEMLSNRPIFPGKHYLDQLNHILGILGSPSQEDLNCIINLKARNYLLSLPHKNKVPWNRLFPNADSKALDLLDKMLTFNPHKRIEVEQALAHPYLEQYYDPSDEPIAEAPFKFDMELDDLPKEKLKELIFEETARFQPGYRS

Row | Ki [1] | Ki [3] | Ki [6] | Ki [7] | Ki [8] | Ki ([10]; Ki calculated using Equation 4, [ATP] = 40 μM, KM app (ATP) = 6 μM, read-out: Ki ± SE) | IC50 ([10]; indolinone derivatives, 40 μM ATP, read-out: IC50) | Structure (SMILES) | proliferation of SUM-159 cells [2] | proliferation of MCF10A cells [4] | proliferation of MCF10A cells ([4]; at 10 μM) | proliferation of BT-549 cells [5] | proliferation of HCC70 cells [9]
1 | 3000 ± 1300 nM | 11 ± 0.86 nM | 9.2 ± 1.7 nM | 7 ± 0.17 nM | 31 ± 11 nM |  |  | COC(=O)c1ccc2c(c1)/C(=C(/Nc1ccc(N(C)C(=O)CN3CCN(C)CC3)cc1)c1ccccc1)C(=O)N2 [Compound 17, Methyl(Z)-3-(((4-(N-methyl-2-(4-methylpiperazin-1-yl)acetamido)phenyl)amino)(phenyl)methylene)-2-oxoindoline-5-carboxylate] | clearly impacted | little effect | remained largely unaffected | clearly impacted | clearly impacted
2 |  |  |  |  |  | 3.1 nM and 0.68 nM | 24 ± 4.7 nM | CN1CCN(CC(=O)N(C)c2ccc(N/C(=C3\C(=O)Nc4ccc(F)cc43)c3ccccc3)cc2)CC1 [Compound 19, (Z)—N-(4-(((5-Fluoro-2-oxoindolin-3-ylidene)(phenyl)methyl)amino)phenyl)-N-methyl-2-(4-methylpiperazin-1-yl)acetamide] | inhibited all cell lines | inhibited all cell lines |  | inhibited all cell lines | inhibited all cell lines

— patent US10981896B2, “Indolinone derivatives as inhibitors of maternal embryonic leucine zipper kinase” (BOARD OF REGENTS, THE UNIVERSITY OF TEXAS SYSTEM, priority 2017, dated 2021)
